From patent publication US12533323B2, “Slow-release formulation” (GLYCOSCIENCE, S.L., priority 2021, dated 2026)

Assay: Dissolution of trans-PMD glucovanillin conjugate in water
Format: physicochemical
Conditions: solid 50 mg in water 0.1 ml
Source text: The resultant solution was cooled to room temperature and purified by chromatography over silica by gradient elution using 1:1 EtOAc/hexane to remove residual diol followed by 1:10 MeOH/dichloromethane to afford the title compound as an odourless white solid (0.73 g, 74%).

dissolution in water: readily dissolve
Structure (SMILES): COc1cc(C2O[C@H]3C[C@@H](C)CCC3C(C)(C)O2)ccc1O[C@@H]1O[C@H](CO)[C@@H](O)[C@H](O)[C@H]1O (mixture of isomers) [Example 2, Racemic trans-PMD Glucovanillin Conjugate]
